Here are results for 32 compounds from patent US8586588B2, “Aryl pyridazinone derivatives and their use as H3 receptor ligands” (Cephalon, Inc., priority 2006, dated 2013).

Structures are written as SMILES. “And” between values parts separate entries of the source, which are not always exact repeats. Identical values can stand only once. Counter-ions that a name gives are not always drawn. Where only a bound is given, the exact number is not on record here.

Assay [1] deals with T1, human H3 receptor (Homo sapiens, UniProt Q9Y5N1).
T1 construct: expressed in transfected cells
Nature of the assay: Human H3 radioligand binding ([3H]-N-alpha-methylhistamine, CHO cell membranes, SPA). The conditions noted are these: Table B, binding constant as letter class. A digest of the protocol:
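Scintillation proximity format: bead-proximal [3H]-N-alpha-methylhistamine (approximately 1 nM final) bound to human H3 receptor in CHO membranes was counted after 4 h at room temperature, light-protected. Buffer was pH 7.4 Tris/MgCl2/BSA; test compounds spanned 0.01 nM-30 μM; 10 μM clobenpropit set non-specific binding.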

Assay [2] addresses T2, rat histamine H3 receptor (Rattus norvegicus, UniProt Q9QYN8).
T2 construct: encoding the entire 445-amino-acid rat histamine H3 receptor; expressed in transfected cells
Nature of the assay: Rat H3 radioligand binding ([3H]-N-alpha-methylhistamine, CHO-A3 cell membranes, SPA). Particulars: Table B, binding constant as letter class; read-out: rat H3 Ki. A digest of the protocol: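 Scintillation proximity displacement of about 1 nM [3H]-N-alpha-methylhistamine, test compound 0.01 nM-30 μM, 4 h, room temperature, in the dark. Receptor source: rat H3 stably transfected into CHO-A3 cells, 10 μg membrane protein, Tris-HCl pH 7.4/MgCl2/BSA buffer. Nonspecific binding defined by 10 μM clobenpropit.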

T2 sequence (Q9QYN8 whole entry): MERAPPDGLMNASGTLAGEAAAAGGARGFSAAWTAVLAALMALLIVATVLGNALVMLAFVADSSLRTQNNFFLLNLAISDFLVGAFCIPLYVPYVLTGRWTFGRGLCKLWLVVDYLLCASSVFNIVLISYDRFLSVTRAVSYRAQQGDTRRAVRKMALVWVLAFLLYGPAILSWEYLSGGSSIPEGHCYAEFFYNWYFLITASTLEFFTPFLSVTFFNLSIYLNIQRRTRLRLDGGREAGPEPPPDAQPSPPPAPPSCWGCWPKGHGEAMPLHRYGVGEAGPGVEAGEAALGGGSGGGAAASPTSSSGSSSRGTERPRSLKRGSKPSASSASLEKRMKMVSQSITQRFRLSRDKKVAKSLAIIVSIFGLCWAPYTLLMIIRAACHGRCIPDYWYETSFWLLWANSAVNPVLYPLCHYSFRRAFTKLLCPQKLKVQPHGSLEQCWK
T1 sequence (Q9Y5N1 whole entry): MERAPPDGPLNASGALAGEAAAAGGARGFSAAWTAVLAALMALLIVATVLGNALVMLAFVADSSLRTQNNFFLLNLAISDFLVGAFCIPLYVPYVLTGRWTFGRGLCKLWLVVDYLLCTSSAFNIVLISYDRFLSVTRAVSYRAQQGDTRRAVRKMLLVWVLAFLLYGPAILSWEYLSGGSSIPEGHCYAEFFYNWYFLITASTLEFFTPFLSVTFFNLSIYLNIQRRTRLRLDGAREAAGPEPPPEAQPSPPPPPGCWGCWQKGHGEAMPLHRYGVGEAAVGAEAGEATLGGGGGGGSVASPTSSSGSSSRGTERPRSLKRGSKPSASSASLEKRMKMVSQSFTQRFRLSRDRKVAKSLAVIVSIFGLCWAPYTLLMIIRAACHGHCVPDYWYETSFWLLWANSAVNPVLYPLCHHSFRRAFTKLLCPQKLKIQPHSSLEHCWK

With `Cn1nc(-c2ccc(OCCCN3CCC[C@H]3CO)cc2)c2c(c1=O)CCCC2` [Example 124, 4-{4-[3-((S)-2-Hydroxymethyl-pyrrolidin-1-yl)-propoxy]-phenyl}-2-methyl-5,6,7,8-tetrahydro-2H-phthalazin-1-one], the Ki in assay [1] and in assay [2] was 0.1 to 100 nM throughout.
In the case of `C[C@@H]1CCCN1CCCOc1cccc(-c2nn(C)c(=O)c3c2CCC3)c1` [Example 125, 2-Methyl-4-{3-[3-((R)-2-methyl-pyrrolidin-1-yl)-propoxy]-phenyl}-2,5,6,7-tetrahydro-cyclopenta[d]pyridazin-1-one], the Ki was in the range of 101 to 500 nM in assay [1] and 501 to 1000 nM in assay [2].
The corresponding values for `Cn1nc(-c2cccc(OCCCN3CCCCC3)c2)c2c(c1=O)CCC2` [Example 126, 2-Methyl-4-[3-(3-piperidin-1-yl-propoxy)-phenyl]-2,5,6,7-tetrahydro-cyclopenta[d]pyridazin-1-one] are 101 to 500 nM and 501 to 1000 nM.
As for `Cn1nc(-c2cccc(OCCCN3CCC[C@H]3CO)c2)c2c(c1=O)CCC2` [Example 127, 4-{3-[3-((S)-2-Hydroxymethyl-pyrrolidin-1-yl)-propoxy]-phenyl}-2-methyl-2,5,6,7-tetrahydro-cyclopenta[d]pyridazin-1-one], the Ki in assay [1] and in assay [2] was 501 to 1000 nM in each case.
With `CC(C)n1ncc(-c2ccc(OCCCN3CCC[C@H]3C)cc2)cc1=O` [Example 128, 2-Isopropyl-5-{4-[3-((R)-2-methyl-pyrrolidin-1-yl)-propoxy]-phenyl}-2H-pyridazin-3-one], the Ki in assay [1] and in assay [2] was 0.1 to 100 nM throughout.
`C[C@@H]1CCCN1CCCOc1ccc(-c2ccc(=O)n(-c3ncccn3)n2)cc1` [Example 138, 6-{4-[3-((R)-2-Methyl-pyrrolidin-1-yl)-propoxy]-phenyl}-2-pyrimidin-2-yl-2H-pyridazin-3-one]: the Ki in assay [1] and in assay [2] was 0.1 to 100 nM in each case.
Turning to `O=c1ccc(-c2ccc(OC3CCN(C4CCCC4)CC3)nc2)n[nH]1` [Example 139, 6-[6-(1-Cyclopentyl-piperidin-4-yloxy)-pyridin-3-yl]-2H-pyridazin-3-one], the Ki in assay [1] and in assay [2] was 0.1 to 100 nM each time.
As for `Cn1nc(-c2ccc(OC3CCN(C4CCCC4)CC3)nc2)ccc1=O` [Example 143, 6-[6-(1-Cyclopentyl-piperidin-4-yloxy)-pyridin-3-yl]-2-methyl-2H-pyridazin-3-one], the Ki in assay [1] is 0.1 to 100 nM; in assay [2], 501 to 1000 nM and 0.1 to 100 nM.
Turning to `Cn1nc(-c2ccc(OC3CCN(C4CCC4)CC3)nc2)ccc1=O` [Example 144, 6-[6-(1-Cyclobutyl-piperidin-4-yloxy)-pyridin-3-yl]-2-methyl-2H-pyridazin-3-one], the Ki in assay [1] and in assay [2] was 0.1 to 100 nM in each case.
Regarding `CC1(C)CC(c2ccc(OC3CCN(C4CCC4)CC3)nc2)=NNC1=O` [Example 148, 6-[6-(1-Cyclobutyl-piperidin-4-yloxy)-pyridin-3-yl]-4,4-dimethyl-4,5-dihydro-2H-pyridazin-3-one], the Ki in assay [1] and in assay [2] was 0.1 to 100 nM throughout.
For the compound `O=c1ccc(-c2ccc(OC3CCN(C4CCC4)CC3)nc2)nn1-c1ccccn1` [Example 149, 6-[6-(1-Cyclobutyl-piperidin-4-yloxy)-pyridin-3-yl]-2-pyridin-2-yl-2H-pyridazin-3-one], the Ki in assay [1] and in assay [2] was 0.1 to 100 nM each time.
`O=c1ccc(-c2ccc(OC3CCN(C4CCC4)CC3)cc2)nn1-c1ccccn1` [Example 157]: the Ki in assay [1] and in assay [2] was 0.1 to 100 nM throughout.
In the case of `O=C1CCC(c2ccc(OC3CCN(C4CCC4)CC3)cc2)=NN1c1ccccn1` [Example 158, 6-[4-(1-Cyclobutyl-piperidin-4-yloxy)phenyl]-2-pyridin-2-yl-4,5-dihydro-2H-pyridazin-3-one], the Ki in assay [1] and in assay [2] was 0.1 to 100 nM throughout.
With `O=c1ccc(-c2ccc(O[C@@H]3CCN(C4CCC4)C3)cc2)n[nH]1` [Example 161, 6-[4-((R)-1-Cyclobutyl-pyrrolidin-3-yloxy)-phenyl]-2H-pyridazin-3-one], the Ki in assay [1] and in assay [2] was greater than 1000 nM each time.
On to `O=C1CCC(c2ccc(O[C@@H]3CCN(C4CCCC4)C3)cc2)=NN1` [Example 162, 6-[4-((R)-1-Cyclopentyl-pyrrolidin-3-yloxy)-phenyl]-4,5-dihydro-2H-pyridazin-3-one], for which the inhibition constant (Ki) in assay [1] is 501 to 1000 nM; in assay [2], greater than 1000 nM.
The matching figures for `O=C1NN=C(c2ccc(OC3CCN(C4CCC4)CC3)cc2)C2CCC12` (stereo not shown) [Example 172, 5-[4-(1-Cyclobutyl-piperidin-4-yloxy)-phenyl]-3,4-diaza-bicyclo[4.2.0]oct-4-en-2-one]: 0.1 to 100 nM and 0.1 to 100 nM.
The matching figures for `C[C@@H]1CCCN1CCCOc1ccc(C2=NNC(=O)CC2)cc1` [Example 178, 6-{4-[3-((R)-2-Methyl-pyrrolidin-1-yl)-propoxy]-phenyl}-4,5-dihydro-2H-pyridazin-3-one]: 0.1 to 100 nM and 0.1 to 100 nM.
Turning to `C[C@@H]1CCCN1CCCOc1ccc(C2=NN(c3ccccn3)C(=O)CC2)cc1` [Example 183, 6-{4-[3-((R)-2-Methyl-pyrrolidin-1-yl)-propoxy]-phenyl}-2-pyridin-2-yl-4,5-dihydro-2H-pyridazin-3-one], the Ki in assay [1] and in assay [2] was 0.1 to 100 nM throughout.
For the compound `CC1CC(=O)N(c2ccccn2)N=C1c1ccc(OC2CCN(C3CCC3)CC2)cc1` (stereo not shown) [Example 193, 6-[4-(1-Cyclobutyl-piperidin-4-yloxy)-phenyl]-5-methyl-2-pyridin-2-yl-4,5-dihydro-2H-pyridazin-3-one], the Ki in assay [1] and in assay [2] was 0.1 to 100 nM in each case.
For the compound `Cc1cc(OCCCN2CCC[C@H]2C)ccc1C1=NNC(=O)CC1` [Example 199, 6-{(R)-2-Methyl-4-[3-(2-methyl-pyrrolidin-1-yl)-propoxy]-phenyl}-4,5-dihydro-2H-pyridazin-3-one], the Ki in assay [1] and in assay [2] was 0.1 to 100 nM in each case.
Consider `Cc1ccc(=O)n(-c2ccc(OCCCN3CCC[C@H]3C)cc2)n1` [Example 201, 6-Methyl-2-{4-[3-((R)-2-methyl-pyrrolidin-1-yl)-propoxy]-phenyl}-2H-pyridazin-3-one], for which the Ki in assay [1] fell in the range of 0.1 to 100 nM; in assay [2], 101 to 500 nM.
`O=c1ccc(-c2ccccc2)nn1-c1ccc(OC2CCN(C3CCC3)CC2)nc1` [Example 203, 2-[6-(1-Cyclobutyl-piperidin-4-yloxy)-pyridin-3-yl]-6-phenyl-2H-pyridazin-3-one]: the Ki in assay [1] and in assay [2] was 0.1 to 100 nM each time.
On to `Cc1onc2c(=O)[nH]nc(-c3ccc(OC4CCN(C5CCC5)CC4)cc3)c12` [Example 205, 4-[4-(1-Cyclobutyl-piperidin-4-yloxy)-phenyl]-3-methyl-6H-isoxazolo[3,4-d]pyridazin-7-one], for which the Ki in assay [1] and in assay [2] was 101 to 500 nM throughout.
For the compound `Cc1onc2c(=O)[nH]nc(-c3ccc(OC4CCNCC4)cc3)c12` [Example 206, 3-methyl-4-[4-(piperidin-4-yloxy)phenyl]-6h-isoxazolo-[3,4-d]pyridazin-7-one TFA salt], the Ki in assay [1] and in assay [2] was greater than 1000 nM throughout.
As to `C[C@@H]1CCCN1CCCOc1ccc2c(c1)CCc1cc(=O)[nH]nc1-2` [Example 209, 8-[3-((R)-2-Methyl-pyrrolidin-1-yl)-propoxy]-5,6-dihydro-2H-benzo[h]cinnolin-3-one], the Ki in assay [1] and in assay [2] was 0.1 to 100 nM each time.
For `C[C@@H]1CCCN1CCCOc1ccc2c(c1)CCC1CC(=O)NN=C21` (stereo partly shown) [Example 212, 8-[3-(2-Methyl-pyrrolidin-1-yl)-propoxy]-4,4a,5,6-tetrahydro-2H-benzo[h]cinnolin-3-one], the Ki in assay [1] and in assay [2] was 0.1 to 100 nM each time.
As to `COc1cc(OCCCN2CCC[C@H]2C)ccc1-c1ccc(=O)[nH]n1` [Example 213, 6-{2-Methoxy-4-[3-((R)-2-methyl-pyrrolidin-1-yl)-propoxy]-phenyl}-2H-pyridazin-3-one], the Ki in assay [1] and in assay [2] was 101 to 500 nM in each case.
As to `C[C@@H]1CCCN1CCCOc1ccc(-c2ccc(=O)n(-c3ccccn3)n2)cc1` [Example 215, 6-{4-[3-((R)-2-Methyl-pyrrolidin-1-yl)-propoxy]-phenyl}-2-pyridin-2-yl-2H-pyridazin-3-one], the Ki in assay [1] and in assay [2] was 0.1 to 100 nM throughout.
As for `C[C@@H]1CCCN1CCCOc1ccc(C2=NNC(=O)C(c3ccccn3)C2)cc1` (stereo partly drawn) [Example 216, 6-{4-[3-((R)-2-Methyl-pyrrolidin-1-yl)-propoxy]-phenyl}-4-pyridin-2-yl-4,5-dihydro-2H-pyridazin-3-one], the Ki in assay [1] and in assay [2] was 0.1 to 100 nM each time.
For the compound `C[C@@H]1CCCN1CCCOc1ccc(-c2cc(-c3ccccn3)c(=O)[nH]n2)cc1` [Example 217, 6-{4-[3-((R)-2-Methyl-pyrrolidin-1-yl)-propoxy]-phenyl}-4-pyridin-2-yl-2H-pyridazin-3-one], the Ki in assay [1] and in assay [2] was 0.1 to 100 nM in each case.
Turning to `C[C@@H]1CCCN1CCCOc1ccc2c(c1)CCc1n[nH]c(=O)cc1-2` [Example 218, 8-[3-((R)-2-Methyl-pyrrolidin-1-yl)-propoxy]-5,6-dihydro-3H-benzo[f]cinnolin-2-one], the Ki in assay [1] and in assay [2] was 0.1 to 100 nM throughout.
Turning to `O=C1CCC(c2ccc(OC3CCN(C4CCC4)CC3)cc2F)=NN1` [Example 219, 6-[4-(1-Cyclobutyl-piperidin-4-yloxy)-2-fluoro-phenyl]-4,5-dihydro-2H-pyridazin-3-one], the Ki in assay [1] and in assay [2] was 0.1 to 100 nM each time.
